Literature values as cited in patent publication US20070149409A1, “Pesticide formulations with substituted biopolymers and organic polymers for improving residual activity, droplet size, adherence and rainfastness on leaves and reduction in soil leaching” (priority 2003, published 2007).

Compound | pK / pKa
CCCC(Cn1cncn1)c1ccc(Cl)cc1Cl (centres unmarked) [penconazole] | 1.5
Nc1nc[nH]n1 [Amitrole] | 9.8
CCCOC(=O)NCCCN(C)C [propamocarb] | 4.9
CP(=O)(O)CCC(N)C(=O)O (centres unmarked) [glufosinate] | 9.8
Indole acetic acid | 4.7
